Laboratory results: ChEMBL document CHEMBL5465560, “Selectivity Literature for EUbOPEN Chemogenomic Library” (2024)
One block for each compound: values may come before it.

Assays:
[1] = biological target: MAP/microtubule affinity-regulating kinase 3 (Homo sapiens) (UniProt P27448); assay: Selectivity interaction (Kinase panel (Carna Biosciences)) EUB0001542aTs MARK3; conditions: at 1 µM
[2] = biological target: Serine/threonine-protein kinase SIK2 (Homo sapiens) (UniProt Q9H0K1); assay: Selectivity interaction (Kinase panel (Z-LYTE Assay)) EUB0001632a SIK2; conditions: at 10 µM
Serine/threonine-protein kinase SIK2 (Homo sapiens), sequence (Q9H0K1 whole entry, looked up): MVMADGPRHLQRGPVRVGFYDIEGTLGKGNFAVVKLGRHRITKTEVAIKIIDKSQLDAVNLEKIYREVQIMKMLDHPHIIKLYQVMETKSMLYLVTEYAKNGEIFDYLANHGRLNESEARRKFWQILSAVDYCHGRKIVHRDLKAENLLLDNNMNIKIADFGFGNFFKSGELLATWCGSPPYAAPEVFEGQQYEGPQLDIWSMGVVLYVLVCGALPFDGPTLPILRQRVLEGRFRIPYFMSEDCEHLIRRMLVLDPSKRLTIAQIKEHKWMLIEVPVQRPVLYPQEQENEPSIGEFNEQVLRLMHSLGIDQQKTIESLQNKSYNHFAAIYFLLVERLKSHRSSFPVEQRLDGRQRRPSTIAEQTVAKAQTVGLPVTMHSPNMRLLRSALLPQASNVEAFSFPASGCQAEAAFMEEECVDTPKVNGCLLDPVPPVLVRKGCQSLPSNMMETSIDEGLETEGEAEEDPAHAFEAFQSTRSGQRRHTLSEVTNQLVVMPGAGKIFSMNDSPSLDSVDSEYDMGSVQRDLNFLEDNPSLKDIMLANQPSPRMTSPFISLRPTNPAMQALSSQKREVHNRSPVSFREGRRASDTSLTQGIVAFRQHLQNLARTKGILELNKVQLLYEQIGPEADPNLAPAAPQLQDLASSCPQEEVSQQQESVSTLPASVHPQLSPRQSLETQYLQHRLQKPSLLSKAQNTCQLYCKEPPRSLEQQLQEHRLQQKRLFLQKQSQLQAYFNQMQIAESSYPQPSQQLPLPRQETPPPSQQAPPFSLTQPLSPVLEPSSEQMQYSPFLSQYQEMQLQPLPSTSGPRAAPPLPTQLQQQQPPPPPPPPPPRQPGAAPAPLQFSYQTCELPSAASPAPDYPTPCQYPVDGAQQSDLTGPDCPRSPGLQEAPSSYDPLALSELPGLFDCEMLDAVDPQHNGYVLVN

[3] = biological target: Ribosomal protein S6 kinase alpha-3 (Homo sapiens, UniProt P51812); assay: Selectivity interaction (KinomeScan (DiscoverX)) EUB0000695a RPS6KA3; conditions: at 100 nM
Ribosomal protein S6 kinase alpha-3, sequence (P51812 whole entry): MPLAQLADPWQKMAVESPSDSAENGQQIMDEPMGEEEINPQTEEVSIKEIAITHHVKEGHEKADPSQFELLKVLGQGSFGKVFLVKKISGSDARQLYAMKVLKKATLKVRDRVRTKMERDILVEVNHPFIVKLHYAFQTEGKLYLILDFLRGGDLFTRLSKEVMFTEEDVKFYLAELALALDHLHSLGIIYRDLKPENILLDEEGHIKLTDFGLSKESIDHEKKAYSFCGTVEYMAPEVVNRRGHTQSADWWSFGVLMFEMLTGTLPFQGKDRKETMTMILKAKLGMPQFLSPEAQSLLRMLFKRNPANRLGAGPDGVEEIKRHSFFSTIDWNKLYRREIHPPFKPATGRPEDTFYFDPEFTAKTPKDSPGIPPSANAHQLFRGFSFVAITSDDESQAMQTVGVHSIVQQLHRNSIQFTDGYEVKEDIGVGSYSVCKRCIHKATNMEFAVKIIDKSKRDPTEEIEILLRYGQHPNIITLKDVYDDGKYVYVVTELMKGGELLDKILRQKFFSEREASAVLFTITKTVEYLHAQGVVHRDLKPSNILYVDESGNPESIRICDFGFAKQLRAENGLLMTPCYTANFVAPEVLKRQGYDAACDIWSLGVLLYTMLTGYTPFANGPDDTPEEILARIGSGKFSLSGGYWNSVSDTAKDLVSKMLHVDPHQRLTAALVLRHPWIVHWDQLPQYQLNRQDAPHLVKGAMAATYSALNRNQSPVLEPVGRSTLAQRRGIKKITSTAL

[4] = biological target: T1, Tyrosine-protein kinase Mer (Homo sapiens) (UniProt Q12866); assay: Selectivity interaction (KinomeScan (DiscoverX)) EUB0001079a MERTK; conditions: at 1 µM
T1 sequence (whole entry): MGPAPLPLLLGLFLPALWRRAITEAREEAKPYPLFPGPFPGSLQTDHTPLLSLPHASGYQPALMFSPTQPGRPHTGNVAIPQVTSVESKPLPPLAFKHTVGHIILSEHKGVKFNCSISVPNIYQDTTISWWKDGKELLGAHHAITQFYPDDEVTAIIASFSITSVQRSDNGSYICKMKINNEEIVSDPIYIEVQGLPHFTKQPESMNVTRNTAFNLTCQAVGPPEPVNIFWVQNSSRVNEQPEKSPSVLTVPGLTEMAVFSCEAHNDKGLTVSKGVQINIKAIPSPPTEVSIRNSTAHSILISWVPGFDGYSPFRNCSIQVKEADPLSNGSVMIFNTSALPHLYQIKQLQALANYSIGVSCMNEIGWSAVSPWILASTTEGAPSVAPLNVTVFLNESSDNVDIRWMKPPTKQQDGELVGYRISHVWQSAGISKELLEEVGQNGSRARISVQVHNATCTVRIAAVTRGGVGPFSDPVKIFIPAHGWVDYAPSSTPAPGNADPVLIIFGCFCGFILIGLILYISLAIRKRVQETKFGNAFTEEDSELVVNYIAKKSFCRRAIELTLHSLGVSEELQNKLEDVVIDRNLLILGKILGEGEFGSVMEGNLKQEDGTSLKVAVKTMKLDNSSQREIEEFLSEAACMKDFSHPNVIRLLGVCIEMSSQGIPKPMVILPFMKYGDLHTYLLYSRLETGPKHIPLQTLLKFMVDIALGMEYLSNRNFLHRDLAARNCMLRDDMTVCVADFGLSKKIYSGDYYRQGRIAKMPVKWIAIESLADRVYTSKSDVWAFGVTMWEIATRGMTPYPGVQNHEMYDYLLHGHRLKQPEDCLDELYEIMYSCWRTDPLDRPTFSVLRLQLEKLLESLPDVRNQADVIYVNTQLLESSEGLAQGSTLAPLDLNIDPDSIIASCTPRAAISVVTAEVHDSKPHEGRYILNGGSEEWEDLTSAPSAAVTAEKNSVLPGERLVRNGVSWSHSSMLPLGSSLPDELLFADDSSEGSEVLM

[5] = biological target: Calcium/calmodulin-dependent protein kinase type II subunit beta (Homo sapiens) (UniProt Q13554); assay: Selectivity interaction (KinomeScan (DiscoverX)) EUB0000618a CAMK2B; conditions: at 10 µM
Calcium/calmodulin-dependent protein kinase type II subunit beta (Homo sapiens), sequence (Q13554 whole entry): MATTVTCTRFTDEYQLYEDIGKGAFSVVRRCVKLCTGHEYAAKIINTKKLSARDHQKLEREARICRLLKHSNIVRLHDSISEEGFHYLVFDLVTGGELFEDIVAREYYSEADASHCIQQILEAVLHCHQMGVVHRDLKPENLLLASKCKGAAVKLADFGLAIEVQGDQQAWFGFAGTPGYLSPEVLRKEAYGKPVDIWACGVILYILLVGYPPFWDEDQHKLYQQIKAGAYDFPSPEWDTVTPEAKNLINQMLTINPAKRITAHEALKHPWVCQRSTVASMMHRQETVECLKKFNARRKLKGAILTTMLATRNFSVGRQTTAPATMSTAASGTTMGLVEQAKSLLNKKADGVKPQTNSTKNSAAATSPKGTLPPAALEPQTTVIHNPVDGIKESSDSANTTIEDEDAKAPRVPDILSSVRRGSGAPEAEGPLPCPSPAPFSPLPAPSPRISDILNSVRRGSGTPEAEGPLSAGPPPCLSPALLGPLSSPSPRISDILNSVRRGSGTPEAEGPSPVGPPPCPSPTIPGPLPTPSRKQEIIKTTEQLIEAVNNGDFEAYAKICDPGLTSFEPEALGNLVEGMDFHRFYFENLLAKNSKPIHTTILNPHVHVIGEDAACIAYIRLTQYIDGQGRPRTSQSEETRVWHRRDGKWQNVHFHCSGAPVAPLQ

[6] = biological target: Serine/threonine-protein kinase WNK3 (Homo sapiens) (UniProt Q9BYP7); assay: Selectivity interaction (KinomeScan (DiscoverX)) EUB0000666a WNK3; conditions: at 10 µM
Serine/threonine-protein kinase WNK3 (Homo sapiens), sequence (Q9BYP7 whole entry): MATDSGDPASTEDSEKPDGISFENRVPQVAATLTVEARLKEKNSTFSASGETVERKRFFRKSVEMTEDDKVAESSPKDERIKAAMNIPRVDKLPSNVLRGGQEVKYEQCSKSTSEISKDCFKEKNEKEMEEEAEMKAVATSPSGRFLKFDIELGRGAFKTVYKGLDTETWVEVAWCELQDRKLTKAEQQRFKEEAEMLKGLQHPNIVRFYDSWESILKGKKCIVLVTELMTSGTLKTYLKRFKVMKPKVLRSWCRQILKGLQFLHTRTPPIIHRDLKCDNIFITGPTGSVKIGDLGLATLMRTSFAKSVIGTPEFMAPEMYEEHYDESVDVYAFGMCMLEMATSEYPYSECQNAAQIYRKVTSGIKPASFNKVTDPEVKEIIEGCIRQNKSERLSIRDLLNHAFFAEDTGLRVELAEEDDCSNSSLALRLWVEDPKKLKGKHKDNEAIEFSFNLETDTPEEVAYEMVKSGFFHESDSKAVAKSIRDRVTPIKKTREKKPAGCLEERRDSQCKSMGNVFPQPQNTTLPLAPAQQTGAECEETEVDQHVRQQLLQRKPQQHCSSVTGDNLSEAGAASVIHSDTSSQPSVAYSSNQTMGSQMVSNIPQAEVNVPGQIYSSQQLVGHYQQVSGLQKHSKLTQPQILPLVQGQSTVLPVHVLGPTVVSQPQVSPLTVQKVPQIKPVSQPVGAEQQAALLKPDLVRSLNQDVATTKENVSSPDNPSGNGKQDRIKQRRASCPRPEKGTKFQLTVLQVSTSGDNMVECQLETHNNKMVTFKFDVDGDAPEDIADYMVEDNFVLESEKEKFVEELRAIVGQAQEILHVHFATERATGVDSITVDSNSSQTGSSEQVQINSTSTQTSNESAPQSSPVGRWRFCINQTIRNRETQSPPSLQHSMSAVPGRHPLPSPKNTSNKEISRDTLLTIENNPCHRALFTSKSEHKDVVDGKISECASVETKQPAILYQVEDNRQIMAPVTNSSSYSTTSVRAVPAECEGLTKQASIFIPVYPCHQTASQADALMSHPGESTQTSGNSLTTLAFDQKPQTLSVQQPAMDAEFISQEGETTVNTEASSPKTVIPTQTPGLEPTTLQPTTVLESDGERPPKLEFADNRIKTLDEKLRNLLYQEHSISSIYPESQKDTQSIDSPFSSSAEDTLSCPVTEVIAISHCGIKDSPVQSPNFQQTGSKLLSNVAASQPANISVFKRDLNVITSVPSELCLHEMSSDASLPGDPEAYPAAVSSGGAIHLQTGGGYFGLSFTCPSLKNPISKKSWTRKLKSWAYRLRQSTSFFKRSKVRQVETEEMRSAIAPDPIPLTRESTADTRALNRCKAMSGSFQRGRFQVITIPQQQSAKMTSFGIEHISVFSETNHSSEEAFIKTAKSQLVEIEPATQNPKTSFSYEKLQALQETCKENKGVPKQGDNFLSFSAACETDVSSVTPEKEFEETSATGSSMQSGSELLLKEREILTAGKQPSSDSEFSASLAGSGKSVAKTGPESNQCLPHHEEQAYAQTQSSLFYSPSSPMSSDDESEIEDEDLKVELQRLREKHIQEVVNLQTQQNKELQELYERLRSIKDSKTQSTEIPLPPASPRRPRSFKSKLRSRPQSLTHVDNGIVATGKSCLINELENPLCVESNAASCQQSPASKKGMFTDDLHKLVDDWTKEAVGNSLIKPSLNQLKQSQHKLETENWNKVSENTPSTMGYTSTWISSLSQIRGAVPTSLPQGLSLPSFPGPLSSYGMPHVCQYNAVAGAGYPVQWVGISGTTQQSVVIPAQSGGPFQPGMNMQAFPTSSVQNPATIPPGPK

[7] = biological target: T2, Tyrosine-protein kinase receptor TYRO3 (Homo sapiens) (UniProt Q06418); assay: Selectivity interaction (KinomeScan (DiscoverX)) EUB0000666a TYRO3; conditions: at 10 µM
T2 sequence (whole entry): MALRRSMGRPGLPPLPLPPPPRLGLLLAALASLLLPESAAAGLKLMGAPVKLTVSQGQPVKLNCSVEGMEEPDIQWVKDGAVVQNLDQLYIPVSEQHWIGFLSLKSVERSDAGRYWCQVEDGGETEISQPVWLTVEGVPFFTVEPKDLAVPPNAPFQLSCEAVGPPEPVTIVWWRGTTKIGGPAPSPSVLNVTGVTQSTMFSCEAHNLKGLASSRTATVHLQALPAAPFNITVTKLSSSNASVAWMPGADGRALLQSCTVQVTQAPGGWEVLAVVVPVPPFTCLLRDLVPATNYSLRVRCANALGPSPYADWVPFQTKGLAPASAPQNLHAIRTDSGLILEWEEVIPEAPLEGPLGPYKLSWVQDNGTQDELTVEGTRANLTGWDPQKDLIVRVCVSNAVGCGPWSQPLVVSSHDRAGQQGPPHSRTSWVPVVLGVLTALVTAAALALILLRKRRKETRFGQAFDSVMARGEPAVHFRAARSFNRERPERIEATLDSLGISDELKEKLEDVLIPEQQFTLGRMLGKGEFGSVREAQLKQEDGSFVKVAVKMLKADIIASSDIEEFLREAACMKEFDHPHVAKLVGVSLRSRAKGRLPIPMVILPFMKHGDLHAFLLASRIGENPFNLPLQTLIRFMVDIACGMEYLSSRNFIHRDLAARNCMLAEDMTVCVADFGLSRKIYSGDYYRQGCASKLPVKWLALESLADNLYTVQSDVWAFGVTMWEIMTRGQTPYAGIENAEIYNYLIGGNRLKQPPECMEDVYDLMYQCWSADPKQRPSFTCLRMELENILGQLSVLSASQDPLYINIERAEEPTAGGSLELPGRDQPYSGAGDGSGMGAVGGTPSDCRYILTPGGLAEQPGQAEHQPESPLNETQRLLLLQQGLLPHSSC

[8] = biological target: T3, Membrane-associated tyrosine- and threonine-specific cdc2-inhibitory kinase (Homo sapiens) (UniProt Q99640); assay: Selectivity interaction (KinomeScan (DiscoverX)) EUB0000666a PKMYT1; conditions: at 10 µM
T3 sequence (whole entry): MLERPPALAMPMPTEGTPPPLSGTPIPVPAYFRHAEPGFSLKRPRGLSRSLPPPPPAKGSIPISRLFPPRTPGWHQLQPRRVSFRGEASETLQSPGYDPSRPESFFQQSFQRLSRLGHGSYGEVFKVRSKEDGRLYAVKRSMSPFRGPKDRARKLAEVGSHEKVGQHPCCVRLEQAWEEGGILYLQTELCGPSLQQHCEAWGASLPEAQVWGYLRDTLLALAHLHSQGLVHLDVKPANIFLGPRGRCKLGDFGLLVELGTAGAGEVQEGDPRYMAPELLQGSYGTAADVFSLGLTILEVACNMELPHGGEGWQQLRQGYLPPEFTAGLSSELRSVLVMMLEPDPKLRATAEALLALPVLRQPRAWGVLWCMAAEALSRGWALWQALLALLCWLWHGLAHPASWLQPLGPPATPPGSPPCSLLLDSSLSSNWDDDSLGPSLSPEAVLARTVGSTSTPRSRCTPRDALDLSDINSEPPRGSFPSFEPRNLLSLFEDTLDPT

MAP/microtubule affinity-regulating kinase 3 (Homo sapiens), sequence (P27448 whole entry, looked up): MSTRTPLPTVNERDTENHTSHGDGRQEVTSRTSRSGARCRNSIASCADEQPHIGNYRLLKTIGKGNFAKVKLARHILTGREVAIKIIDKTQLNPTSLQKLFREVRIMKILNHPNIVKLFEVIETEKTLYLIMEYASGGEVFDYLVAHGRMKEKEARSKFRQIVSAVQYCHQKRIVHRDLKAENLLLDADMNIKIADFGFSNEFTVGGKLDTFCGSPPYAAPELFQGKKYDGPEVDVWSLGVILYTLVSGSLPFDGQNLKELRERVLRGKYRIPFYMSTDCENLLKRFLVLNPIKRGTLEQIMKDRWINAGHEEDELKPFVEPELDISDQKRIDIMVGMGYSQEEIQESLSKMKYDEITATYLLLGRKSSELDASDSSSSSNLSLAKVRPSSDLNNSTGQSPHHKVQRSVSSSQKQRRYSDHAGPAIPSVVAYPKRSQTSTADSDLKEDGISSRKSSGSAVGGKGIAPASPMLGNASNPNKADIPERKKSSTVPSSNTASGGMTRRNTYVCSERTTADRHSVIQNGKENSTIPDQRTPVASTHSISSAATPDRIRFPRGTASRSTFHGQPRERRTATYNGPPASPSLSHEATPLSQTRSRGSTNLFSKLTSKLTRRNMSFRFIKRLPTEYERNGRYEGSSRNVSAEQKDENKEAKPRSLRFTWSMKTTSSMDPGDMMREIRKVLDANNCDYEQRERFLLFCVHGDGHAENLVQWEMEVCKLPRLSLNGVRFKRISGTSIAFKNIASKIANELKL

% of inhibition [1]: 50%
Structure (SMILES): Cn1cc(Nc2nccc(N3CC4CCC(C3)N4C(=O)[C@@H]3CC3(F)F)n2)cn1

% of control [2]: 5.35%
Structure (SMILES): Cn1cc(-n2cnc3c(NCc4nc5cc(Cl)c(Cl)cc5[nH]4)nc(N4CCOCC4)nc32)cn1

Structure (SMILES): Cc1cc(F)c(C(=O)Nc2cccc(-c3nncn3C(C)C)n2)cc1-n1cnc(C2CC2)c1
% of control [3]: 46%

Structure (SMILES): Nc1cnc(N2CCc3cc(S(=O)(=O)Nc4c(F)cc(Cl)cc4F)cc(N4CCCC4=O)c32)nc1 [TP-020n]
% of control [4]: 100%

Structure (SMILES): O[C@H]1CC[C@H](Nc2ncc3nc(Nc4c(F)cc(F)cc4F)n([C@H]4CCOC4)c3n2)CC1
% of control [5]: 100%

Structure (SMILES): O=C(NOC[C@H](O)CO)c1ccc(F)c(F)c1Nc1ccc(I)cc1F
% of control [6]: 100%
% of control [7]: 80%
% of control [8]: 80%
